One test deals with dsDNA. In words: Stabilization of 5'-DABCYL labeled double stranded DNA (unknown origin) assessed as change in melting temperature at 5 uM preincubated for 5 mins and measured after 5 mins by FRET assay. The class given is nucleic-acid assay.
The test system of test [1] is Quadruplex DNA. In words: Stabilization of 5'-DABCYL/3'-FAM labeled KRAS G-quadruplex oligonucleotide (unknown origin) assessed as change in melting temperature at 5 uM preincubated for 5 mins and measured after 5 mins by FRET assay. The class given is nucleic-acid assay.
The test system of test [2] is Quadruplex DNA. In words: Stabilization of 5'-DABCYL/3'-FAM labeled cMYC G-quadruplex oligonucleotide (unknown origin) assessed as change in melting temperature at 5 uM preincubated for 5 mins and measured after 5 mins by FRET assay. It counts as nucleic-acid assay.
Test [3] relates to Quadruplex DNA. The experiment in a line: Stabilization of 5'-DABCYL/3'-FAM labeled BCL2 G-quadruplex oligonucleotide (unknown origin) assessed as change in melting temperature at 5 uM preincubated for 5 mins and measured after 5 mins by FRET assay. It counts as nucleic-acid assay.
Test [4] relates to Quadruplex DNA. In words: Stabilization of 5'-DABCYL/3'-FAM labeled HTS G-quadruplex oligonucleotide (unknown origin) assessed as change in melting temperature at 5 uM preincubated for 5 mins and measured after 5 mins by FRET assay. It counts as nucleic-acid assay.
The test system of test [5] is Quadruplex DNA. The experiment in a line: Stabilization of 5'-DABCYL/3'-FAM labeled cKIT1 G-quadruplex oligonucleotide (unknown origin) assessed as change in melting temperature at 5 uM preincubated for 5 mins and measured after 5 mins by FRET assay. It counts as nucleic-acid assay.
The test system of test [6] is Quadruplex DNA. In words: Binding affinity to 5'-DABCYL/3'-FAM labeled cKIT1 G-quadruplex oligonucleotide (unknown origin) assessed as conformational change at test compound to DNA ratio of 4:1 measured for 10 mins by circular dichroism analysis. It counts as nucleic-acid assay. (In general: Circular dichroism is widely used to follow secondary structure.)
For test [7], the system named is Quadruplex DNA. In words: Binding affinity to 5'-DABCYL/3'-FAM labeled cKIT1 G-quadruplex oligonucleotide (unknown origin) assessed as melting temperature at test compound to DNA ratio of 4:1 measured for 10 mins by circular dichroism analysis. The class given is nucleic-acid assay.
Test [8] deals with Quadruplex DNA. In words: Binding affinity to 5'-biotin-TEG labeled cKIT1 G-quadruplex oligonucleotide (unknown origin) by SPR analysis. It counts as nucleic-acid assay. For orientation: SPR reads the build-up and loss of mass on a sensor chip optically.
Test [9] has as its target Quadruplex DNA. In words: Binding affinity to 5'-cy5 labeled cKIT1 G-quadruplex oligonucleotide (unknown origin) by microscale thermophoresis analysis. It counts as nucleic-acid assay. Background: Microscale thermophoresis detects binding through changes in fluorescence in a small temperature gradient.
The subject of another test is HT-29. In words: Cytotoxicity against human HT-29 cells assessed as cell viability at 20 uM incubated for 48 hrs by trypan blue assay relative to control. The class given is functional. To be noted: HT-29, 48 h, read-out: Activity.
For another test, the system named is A2780. The experiment in a line: Cytotoxicity against human A2780 cells assessed as cell viability at 20 uM incubated for 48 hrs by trypan blue assay relative to control. The class given is functional. To be noted: A2780, 48 h, read-out: Activity.
The subject of another test is A549. The experiment in a line: Cytotoxicity against human A549 cells assessed as cell viability at 20 uM incubated for 48 hrs by trypan blue assay relative to control. To be noted: A549, 48 h, read-out: Activity. It counts as functional.
For test [10], the system named is Quadruplex DNA. The experiment in a line: Competitive binding affinity to 5'-DABCYL/3'-FAM labeled cKIT1 G-quadruplex oligonucleotide (unknown origin) at 5 uM preincubated for 5 mins and measured after 5 mins in presence of ds DNA by FRET assay. The class given is nucleic-acid assay.

Active and inactive are the calls of the source. The rule behind the calls is not given here.

Take `COc1ccc2c(c1OC)c(=O)n1c3ccccc3c3cc(C(=O)N4CCN(Cc5ccccc5)CC4)nc2c31`: the deltaTm result with dsDNA, in the test with Quadruplex DNA [1], with Quadruplex DNA [2], in the test on Quadruplex DNA [3] and in the test on Quadruplex DNA [5] was “inactive” each time. Besides, in the test with Quadruplex DNA [4], the ΔTm turned out to be 0.5 °C.
Regarding `CCN1CCN(C(=O)c2cc3c4ccccc4n4c(=O)c5ccccc5c(n2)c34)CC1`, the ΔTm in the test with dsDNA stood at 0.6 °C; in the test with Quadruplex DNA [2] it was 1.2 °C; with Quadruplex DNA [3], 2.3 °C; with Quadruplex DNA [4] it was 1.5 °C. For the same molecule, the deltaTm result in the test on Quadruplex DNA [1] and with Quadruplex DNA [5] was “inactive” in each case.
Regarding `CN(C)Cc1c(O)ccc2c1c1ccnc3c4ccccc4c(=O)n2c13`, the ΔTm with dsDNA is 0.1 °C; in the test with Quadruplex DNA [2], 3.8 °C; with Quadruplex DNA [3], 1.1 °C; in the test on Quadruplex DNA [4], 3.3 °C; in the test with Quadruplex DNA [5] it was 5 °C. In addition, the deltaTm entry in the test on Quadruplex DNA [1] is “inactive”.
For `C=C(C)Cc1c(OCC(=O)NCC2CCCN2CC)ccc2c1c1ccnc3c4ccccc4c(=O)n2c13` (centres undefined), the deltaTm result with dsDNA and with Quadruplex DNA [1] was “inactive” each time. The ΔTm with Quadruplex DNA [2] came out at 3.4 °C; in the test on Quadruplex DNA [3] it was 0 °C; in the test on Quadruplex DNA [4], 1.7 °C; in the test on Quadruplex DNA [5], 1.6 °C.
In the case of `COc1ccc2c(c1OC)c(=O)n1c3ccc(OCC(=O)NCCCN4CCOCC4)cc3c3ccnc2c31`, the ΔTm stood at 0.1 °C in the test with dsDNA; 0.8 °C in the test on Quadruplex DNA [1]; 4.9 °C in the test with Quadruplex DNA [2]; 3.4 °C with Quadruplex DNA [3]; 4.5 °C with Quadruplex DNA [4]; 6.3 °C with Quadruplex DNA [5]. In addition, the outcome in the test with Quadruplex DNA [6] was Active. For the same molecule, the Tm in the test with Quadruplex DNA [7] is 59.9 °C. Also, the values for the Kd at Quadruplex DNA [8] and on Quadruplex DNA [9] were 510 nM and 300 nM, respectively. In addition, the viability at 20 µM in the test with HT-29 was 85%; in the test with A2780, 94%; in the test with A549, 69%. For the same molecule, in the test on Quadruplex DNA [10], the outcome was inactive.
With `COc1ccc2c(c1OC)c(=O)n1c3ccccc3c3cc(C(=O)N4CCN(CCO)CC4)nc2c31`, the deltaTm entry in the test with dsDNA, in the test with Quadruplex DNA [1] and with Quadruplex DNA [5] was “inactive” each time. The ΔTm in the test on Quadruplex DNA [2] was determined as 0.8 °C; with Quadruplex DNA [3] it was 2.3 °C; in the test on Quadruplex DNA [4] it was 0.6 °C.

As a reminder, the ΔTm is the shift of the melting midpoint relative to a reference. By Kd is commonly meant the concentration at which binding is half-saturated.

The record behind these values is ChEMBL document CHEMBL4311958, “Targeting multiple G-quadruplex-forming DNA sequences: Design, biophysical and biological evaluations of indolo-naphthyridine scaffold derivatives” (Eur J Med Chem, 2019).
